Experimental data from patent publication US20200268720A1, “METHODS OF USE OF A CLASS IIA HDAC INHIBITOR” (GlaxoSmithKline LLC, priority 2016, published 2020).

How the values were obtained:
tumor vasculature = assay: Tumor vasculature (CD34 IHC, heavy dextran leaky vasculature experiment); assay type: in vivo, mouse
Protocol: Tumor bearing mice that had been treated for 5 days with vehicle or TMP195 were injected with a heavy molecular weight (250 kDa; Sigma-Aldrich FD250S) dextran labeled with FITC36. After 10 minutes, mice were sacrificed. […] Tumors were removed and placed in a 4% PBS/Paraformaldehyde solution overnight, then embedded in a 20% sucrose solution overnight. Tumors were embedded in an optimum cutting temperature (OCT) solution and stored at −80° C. prior to sectioning and staining. The extent of the heavy dextran that permeated through the vasculature was visualized by immunofluorescence.

MMTV-PyMT tumors [1] = assay: Tumor cell proliferation and apoptosis (Ki67, cleaved Caspase 3 IHC, immunoblot); assay type: in vivo, mouse; details: 5 days of TMP195
Protocol: Tumors were manually dissociated using a blade before being lysed in complete RIPA lysis buffer for 2 hours at 4° C. Complete RIPA is a combination of RIPA lysis buffer, a protease inhibitor, and Phenylmethylsulfonyl fluoride (PMSF). After incubation in RIPA, the lysates were centrifuged at 10,000 rcf for 10 minutes and the supernatant was collected for analysis. Protein concentration was measured using a Bicinchoninic acid (BCA) assay as per manufacturer's instructions. Equal protein concentrations were mixed into NuPAGE LDS sample buffer, beta mercaptoethanol (BME), and complete RIPA buffer before being heated for 10 mins at 90° C. to denature the protein. The gels were run on 15 wells 4-12% Bis-Tris Protein gels for 2 hours at 110 volts before being transferred onto a PVDF membrane. The blots were blocked in a 5% milk and PBST solution, and placed in primary antibody overnight. Blots were then incubated in secondary antibody for 1 hour before being developed with supersignal west PICO chemiluminescence substrate and FEMTO supersignal maximal sensitivity substrate. A Luminescent Image Analyzer LAS-4000 was used to develop blots. Primary antibodies purchased from Cell Signaling Technology were used: cleaved caspase 3 (D175), PARP (9542S) and Actin. Antibodies were diluted to a 1:1000 solution in 1% BSA, and sodium azide diluted to 1:500. […]

[2] = system: human monocytes, T or B cells; details: cited from earlier work
[3] = system: MMTV-PyMT tumor transplants; assay: Orthotopic transplant of MMTV-PyMT tumor pieces into wild-type FVBN or athymic nude Foxn1nu mice; assay type: in vivo, mouse
Protocol: Two transplant experiments were performed where tumors were extracted from MMTV-PyMT mice and 50-100 mm^3 pieces were inserted into the 4th mammary fat pad of either wild-type FVBN mice or athymic nude Foxn1nu mice. Five days after implant mice were randomly placed into treatment groups and treated as indicated.

MMTV-PyMT tumors [4] = assay: Combination with chemotherapy (Carboplatin, Paclitaxel) in MMTV-PyMT mice; assay type: in vivo, mouse
MMTV-PyMT tumors [5] = assay: Combination with PD-1 checkpoint blockade in MMTV-PyMT mice; assay type: in vivo, mouse; details: TMP195 50 mg/kg IP daily plus 250 μg anti-PD-1
Human monocytes = assay: In vitro antigen presenting cell (APC) and T cell proliferation experiments; assay type: cell-based
Source text: Blood was collected from healthy donors according to the guidelines of the American Association of Blood Banks and under an IRB-approved informed consent form was purchased from Research Blood Components (Boston, Mass.). Human monocytes were isolated from buffy coat preparations via positive selection as per the manufacturer's instructions (StemCell Technologies, Catalog #18058). Monocytes were differentiated into antigen presenting cells in RPMI Medium 1640 supplemented with GLUTAMAX™ (GIBCO), fetal bovine serum (10% v/v), IL-4 (10 ng/ml), GM-CSF (50 ng/ml), penicillin (100 U/ml), and streptomycin (100 ug/ml) for 5 days in the presence of either 0.1% (v/v) DMSO or 300 nM TMP195. Cells were collected by washing and incubation with a solution of 5 mM EDTA in PBS (Ca2^+ and Mg2^+-free), prior to flow cytometric analysis of CD80 (Biolegend #305208) and CD86 (Biolegend #305418). Alternatively, harvested APCs were counted and co-cultured in culture medium (no DMSO or inhibitor present) with heterologous CD4^+ T cells (isolated from buffy coats via negative selection following manufacturer's instructions, StemCell Technologies, Catalog #15062) that had been labeled with CELLTRACE™ CFSE (ThermoFisher catalog #C34554) at a 10:1 T cell:APC ratio. T cell proliferation was stimulated by the addition of 200 pg/ml anti-CD3 (Biolegend Catalog #317326), and proliferation was quantified after 72 hours of co-culture by the dilution of CFSE using FlowJo software (version 9.4, Treestar, Inc.).

[6] = TMP195 50 mg/kg IP daily plus PTX 10 mg/kg IV
[7] = IL-4 and GM-CSF, 5 days, 300 nM TMP195 vs 0.1% DMSO

## CC(C)(CNC(=O)c1cccc(-c2noc(C(F)(F)F)n2)c1)c1coc(-c2ccccc2)n1 [TMP195, N-(2-methyl-2-(2-phenyloxazol-4-yl)propyl)-3-(5-(trifluoromethyl)-1,2,4-oxadiazol-3-yl)benzamide]
Tumor vasculature; 5 days of TMP195 vs DMSO
  tumor vasculature organization (CD34+ vessel structure): more organized
Tumor vasculature; 5 days of TMP195 vs vehicle
  integrity of the tumor vasculature (retention of IV heavy dextran): significantly improved
MMTV-PyMT tumors [1]
  cell death in the tumor (cleaved Caspase 3, PARP cleavage): increase in cell death
  proliferating tumor cells (Ki67): significant decrease
[2]; previous report
  gene expression of monocytes and lymphocytes: altered monocyte gene expression without affecting that of lymphocytes
[2]; previously reported
  direct cytotoxicity to human monocytes, T or B cells: not directly cytotoxic
[3]; treated daily for 16 days, 50 mg/kg TMP195 vs DMSO
  tumor burden in wild-type FVBN recipients: tumor burden was reduced
[3]; treated for 20 days
  transplant growth in T cell deficient athymic nude (Foxn1nu) recipient mice: failed to inhibit transplant growth
MMTV-PyMT tumors [4]; TMP195 50 mg/kg IP daily plus Carboplatin 50 mg/kg IV every 5 days
  tumor burden, combination with Carboplatin: significant reduction in tumor burden compared to either monotherapy
MMTV-PyMT tumors [4]; [6]
  durability of efficacy, combination of TMP195 and PTX: at least 29 days
  durability, combination of TMP195 plus PTX (figure legend): durable for at least one month
MMTV-PyMT tumors [4]; TMP195 50 mg/kg IP daily plus Paclitaxel 10 mg/kg IV every 5 days
  tumor burden, combination with Paclitaxel: significant reduction in tumor burden compared to either monotherapy
MMTV-PyMT tumors [5]
  tumor burden, TMP195 added to the anti-PD-1 regimen: significantly greater reduction in tumor burden than TMP195 alone
Human monocytes; [7]
  T cell co-stimulatory function of monocytes differentiated to antigen presenting cells: promoted T cell co-stimulatory function
  proportion of cells expressing the co-stimulatory molecule CD86: increase
Human monocytes; monocytes differentiated in 300 nM TMP195 vs DMSO, 10:1 T cell:APC
  proliferation (Division Index) of CFSE-labeled naive CD4+ T cells co-cultured with differentiated monocytes: higher degree of proliferation
